These results are taken from PubChem BioAssay AID1462 (Emory University Molecular Libraries Screening Center, 2008).

This experiment addresses Protein GrpE (Escherichia coli (strain K12)) (UniProt P09372). Put plainly: inhibition of DnaK/DnaJ/GrpE luciferase refolding – biochemical, luminescence, E. coli K12, dose response (AID 1462). The following applies: DnaK/DnaJ/GrpE denatured luciferase refolding.

The structures appear in SMILES notation. Where “and” joins values, the source holds several entries; their conditions need not be identical. Identical values can stand only once.

Sequence of Protein GrpE (Escherichia coli (strain K12)) (P09372 whole entry, looked up): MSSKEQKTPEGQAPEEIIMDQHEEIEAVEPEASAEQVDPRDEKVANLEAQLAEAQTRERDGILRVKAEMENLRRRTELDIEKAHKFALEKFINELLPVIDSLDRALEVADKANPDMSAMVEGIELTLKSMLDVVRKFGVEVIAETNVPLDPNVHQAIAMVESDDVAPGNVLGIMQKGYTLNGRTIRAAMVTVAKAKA

By IC50 is commonly meant the concentration that inhibits the measured activity by half. For `Nc1c(S(=O)(=O)O)cc(Nc2ccc(Nc3nc(Cl)nc(Nc4ccc(S(=O)(=O)O)cc4)n3)c(S(=O)(=O)O)c2)c2c1C(=O)c1ccccc1C2=O`, the IC50 was 1660 nM and 551 nM.
